Earlier results in PMC6203792, “An IL13Rα2 peptide exhibits therapeutic activity against metastatic colorectal cancer” (British Journal of Cancer, 2018).

Molecular target: IL13Rα2
Settings: read-out: affinity of IL-13/IL13Rα2 molecular recognition

- Kd: ~0.5 nM
Substance: IL-13: Recombinant human IL-13
